Our source for the viability, T/C and IC50 values is PubChem BioAssay AID2060495 (Molecular Pharmacology Branch, DTP, NCI, 2025).

For the assay, the system named is 521955-158-R2-J5-PDC complex spheroid viability. The assay can be described thus: Anticancer human tumor 521955-158-R2-J5-PDC patient-derived pancreatic carcinoma cell line growth inhibition [GQUAD]. The following applies: for viability, T/C: stronger effect = lower value. The source says:
DNA G-quadruplex Stabilizer Agents in Combinations in Complex Spheroids
A high-throughput screen of multi-cell type tumor spheroids was designed to identify active combinations of DNA G-quadruplex stabilizer agents and targeted small molecules. Complex spheroids include a stromal component modeled by human endothelial cells (HUVEC) and fibroblasts modeled by human mesenchymal stem cells (MSCs). The concentration ranges selected for each drug and investigational agent were based upon clinically achievable concentrations if the clinical Cmax of the agent was known.
Compounds. The drugs and investigational agents: pidnarulex (CX-5461; NSC782164), APTO-253 (NSC789042), BRACO-19 (NSC847499), peposertib (NSC802822), ceralasertib (NSC780249), elimusertib (NSC800525), camonsertib (NSC841442), AZD-1390 (NSC803789), olaparib (NSC753686), talazoparib (NSC767125), ART-558 (NSC835418), sotorasib (NSC818433), MRTX-1133 (NSC836407), SN-38 (NSC673596), topotecan (NSC609699), etoposide (NSC141540), doxorubicin (NSC123127), gemcitabine (NSC613327), 5-fluorouracil (NSC19893), paclitaxel (NSC125973), vemurafenib (NSC761431), panobinostat (NSC761190), R-306465 (JNJ-16241199; NSC773264), adavosertib (NSC754352), TP-3654 (NSC805149), carboplatin (NSC241240), KSQ-4279 (NSC840948), and staurosporine (NSC755774) were obtained from the National Cancer Institute (NCI) Developmental Therapeutics Program Chemical Repository (34). The FDA-approved anticancer drug set is available from the NCI Developmental Therapeutics Program. […] The stock solutions were prepared in dimethyl sulfoxide (DMSO, Sigma-Aldrich, St. Louis, MO, cat. D2650) at 800-fold the tested concentration and stored at -70 degrees C prior to their use. All drugs and investigational agents were tested over a range starting from a high concentration at or near the clinical Cmax and decreasing in half-log increments. If the clinical Cmax for an agent had not been determined, the highest concentration tested was 10 microM.
2.3 Cell Culture. All cells were maintained in an incubator at 37 degrees C and 5% CO2 with 95% humidity. The PDC lines were cultured according to standard operating procedures established by the NCI PDMR. All PDCs were thawed and cultured in Matrigel-coated flasks prepared with a working solution of 1X Ham's F-12 nutrient mix, without supplementation (Invitrogen, cat. 11765054), 100 U/mL penicillin-streptomycin (Invitrogen, cat. 15140122), and 2.5% Matrigel (Corning Inc., cat. 354248) for the first three passages. The 857933-349-R-J2-PDC line was cultured in 6C/Colon 1B media, which includes advanced DMEM/F-12 (Thermo Fisher Scientific, cat. 12634028), 10 mM HEPES (Thermo Fisher Scientific, cat. 15630080), 1X GlutaMAX supplement (Thermo Fisher Scientific, cat. 35050061), 0.1 mg/mL primocin (InvivoGen, cat. ant-pm-2), 10% defined fetal bovine serum, heat inactivated (HyClone Laboratories Inc., cat. SH30070.03HI), 50% L-WRN conditioned media (ATCC, cat. CRL-3276), 1.25 mM N-Acetyl-L-cysteine (Sigma-Aldrich, cat. A9165), 10 mM nicotinamide (Sigma-Aldrich, cat. N0636), 1X B-27 supplement (Thermo Fisher Scientific, cat. 17504044), 1X N-2 supplement (Thermo Fisher Scientific, cat. 17502048), 10 microM Y-27632 dihydrochloride (Tocris Bioscience, cat. 1254), and 50 ng/mL human EGF recombinant protein (Thermo Fisher Scientific, cat. PHG0311). The 485176-168-R4-J1-PDC line was cultured in Panc media, which includes all 6C/Colon 1B media components plus 100 ng/mL human FGF-10 (Thermo Fisher Scientific, cat. 100-26), 500 nM SB-431542 (Selleckchem, cat. S1067), and gastrin (Tocris, cat. 3006).
[…]

pIC50: −log10 of the molar value. Values joined by “and” are separate entries in the source; they are usually repeats but may differ in a detail not shown here. Equal values may be shown once. Some results are limits rather than exact numbers.
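Further: spheroids exposed to agents for one week before reading.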

The viability, T/C is the ratio of treated to control. As a reminder, the pIC50 is −log10 of the IC50, conventionally taken in molar units. On to `CC(C)(O)C1CCC(Nc2ccc3ncc(-c4cccc(C(F)(F)F)c4)n3n2)CC1` (configuration not stated), for which the viability, T/C (compound 0.0316 µM) was 120% and 105% and 102%; the viability, T/C (compound 0.1 µM) was 109% and 101% and 81.3%; the viability, T/C (compound 0.316 µM) is 107% and 114% and 115%; the viability, T/C (compound 1 µM) is 110% and 112% and 125%; the viability, T/C (compound 3.16 µM) is 15.4% and 16.3% and 6.66%; the viability, T/C (compound 10 µM) was 18.2% and 18% and 8.13%. Besides, the pIC50 (curve of compound) was 5.68 and 5.72.

Take `COc1ccc([C@@H](O)c2cc(-c3ncnc4cc(N5CCOCC5)ccc34)c(F)cc2Cl)nn1`: the viability, T/C runs as follows: (compound 0.0316 µM) 88.1% and 109% and 104%; (compound 0.1 µM) 87% and 96.8% and 88.3%; (compound 0.316 µM) 83.3% and 97% and 86.6%; (compound 1 µM) 63.6% and 77.3% and 58.9%; (compound 3.16 µM) 50.2% and 64.8% and 50.8%; (compound 10 µM) 38% and 42.1% and 40.9%. Moreover, the pIC50 (curve of compound) was 5.55 and 5.18 and 5.54.

`COc1cccc2c1C(=O)c1c(O)c3c(c(O)c1C2=O)CC(O)(C(=O)CO)CC3OC1CC(N)C(O)C(C)O1` (configuration not stated) + Cc1[nH]c2ccc(F)cc2c1-c1nc2c3cccnc3c3ncccc3c2[nH]1: the pIC50 was 6.82 (curve of first compound, second compound 0.0316 µM); 6.71 (curve of first compound, second compound 0.1 µM); 6.73 (curve of first compound, second compound 0.316 µM); 6.89 (curve of first compound, second compound 1 µM); 6.81 (curve of first compound, second compound 3.16 µM); 6.74 (curve of first compound, second compound 10 µM). Also, the viability, T/C reads like this: (second compound 0.0316 µM, first compound 0.0316 µM) 102%; (second compound 0.0316 µM, first compound 0.1 µM) 60.3%; (second compound 0.0316 µM, first compound 0.316 µM) 31.3%; (second compound 0.0316 µM, first compound 1 µM) 13.2%; (second compound 0.0316 µM, first compound 3.16 µM) 5.72%; (second compound 0.0316 µM, first compound 10 µM) 0.72%. Besides, the viability, T/C (second compound 0.1 µM, first compound 0.0316 µM) is 92.3%; the viability, T/C (second compound 0.1 µM, first compound 0.1 µM) was 72.2%; the viability, T/C (second compound 0.1 µM, first compound 0.316 µM) was 32.9%; the viability, T/C (second compound 0.1 µM, first compound 1 µM) is 11%; the viability, T/C (second compound 0.1 µM, first compound 3.16 µM) was 5.83%; the viability, T/C (second compound 0.1 µM, first compound 10 µM) was 0.27%. In addition, the viability, T/C is 88.4% (second compound 0.316 µM, first compound 0.0316 µM); 72.9% (second compound 0.316 µM, first compound 0.1 µM); 30% (second compound 0.316 µM, first compound 0.316 µM); 13.7% (second compound 0.316 µM, first compound 1 µM); 3.99% (second compound 0.316 µM, first compound 3.16 µM); 0.46% (second compound 0.316 µM, first compound 10 µM). Besides, the viability, T/C was 90.1% (second compound 1 µM, first compound 0.0316 µM); 57.7% (second compound 1 µM, first compound 0.1 µM); 25.4% (second compound 1 µM, first compound 0.316 µM); 14.1% (second compound 1 µM, first compound 1 µM); 5.66% (second compound 1 µM, first compound 3.16 µM); 0.41% (second compound 1 µM, first compound 10 µM). The viability, T/C was 85.7% (second compound 3.16 µM, first compound 0.0316 µM); 65.6% (second compound 3.16 µM, first compound 0.1 µM); 24.5% (second compound 3.16 µM, first compound 0.316 µM); 17.2% (second compound 3.16 µM, first compound 1 µM); 4.87% (second compound 3.16 µM, first compound 3.16 µM); 0.33% (second compound 3.16 µM, first compound 10 µM). Further, the viability, T/C reads like this: (second compound 10 µM, first compound 0.0316 µM) 97.5%; (second compound 10 µM, first compound 0.1 µM) 73.6%; (second compound 10 µM, first compound 0.316 µM) 27.5%; (second compound 10 µM, first compound 1 µM) 12.1%; (second compound 10 µM, first compound 3.16 µM) 9.02%; (second compound 10 µM, first compound 10 µM) 0.29%.

`Cc1[nH]c2ccc(F)cc2c1-c1nc2c3cccnc3c3ncccc3c2[nH]1`: the viability, T/C reads like this: (compound 0.0316 µM) 106% [middle of 12 runs]; (compound 0.1 µM) 100% [middle of 12 runs]; (compound 1 µM) 102% [middle of 12 runs]; (compound 10 µM) 89.7% [middle of 12 runs]. For the same compound, the pIC50 (compound alone, run of 04/16/2024) was less than 5.00 and the pIC50 (compound alone, run of 04/22/2024) is less than 5.00.
